Assay results taken from the supplement of paper PMC10307832.

Assays:
Test in all cases: relative viability (nuclei count vs DMSO), 5 days (fraction); higher = more cells survive
[1] = compound: C1COCCN1C2=CC(=O)C3=C(O2)C(=CC=C3)C4=CC=CC5=C4SC6=CC=CC=C56
In short: (§1)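 Cells of lung cancer lines were placed in 1536-well plates and kept overnight at 37 °C. Pinning then delivered five library-drug doses (not always all listed), spaced by √10, onto plates anchored with vehicle, and the cells were left 5 days without changing medium. One step fixed, permeabilised and stained them with Hoechst, and MetaXpress counted nuclei in 4× images. Viability, as a median over plates, is treated-well nuclei divided by vehicle-well nuclei, with acceptance only at control CV below 25% and at least one doubling.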

[2] = compound: CCN(CC)CCCCNc1ncc2cc(-c3cc(OC)cc(OC)c3)c(NC(=O)NC(C)(C)C)nc2n1
In short: as §1

PRIMA-1MET = compound: COCC1(CO)C(=O)C2CCN1CC2 [PRIMA-1MET]
In short: as §1

Zibotentan = compound: COc1nc(C)cnc1NS(=O)(=O)c1cccnc1-c1ccc(-c2nnco2)cc1 [Zibotentan]
In short: as §1

[3] = compound: O=c1cc(-c2cccc3c2Sc2ccccc2S3)oc(N2CCOCC2)c1
In short: as §1

Cell Line | relative viability ([1]; 0.01 µM) | relative viability ([1]; 0.03162 µM) | relative viability ([1]; 0.1 µM) | relative viability ([1]; 0.3162 µM) | relative viability ([1]; 1 µM) | relative viability ([2]; 0.01 µM) | relative viability ([2]; 0.03162 µM) | relative viability ([2]; 0.1 µM) | relative viability ([2]; 0.3162 µM) | relative viability ([2]; 1 µM) | relative viability (PRIMA-1MET; 0.2 µM) | relative viability (PRIMA-1MET; 0.6325 µM) | relative viability (PRIMA-1MET; 2 µM) | relative viability (PRIMA-1MET; 6.325 µM) | relative viability (PRIMA-1MET; 20 µM) | relative viability (Zibotentan; 0.08 µM) | relative viability (Zibotentan; 0.253 µM) | relative viability (Zibotentan; 0.8 µM) | relative viability (Zibotentan; 2.53 µM) | relative viability ([3]; 0.08 µM) | relative viability ([3]; 0.253 µM) | relative viability ([3]; 0.8 µM) | relative viability ([3]; 2.53 µM) | relative viability ([3]; 8 µM)
LU99A | 0.957 | 1.03 | 1.02 | 0.888 | 0.997 | 0.888 | 0.972 | 0.997 | 1.01 | 0.899 | 0.939 | 0.852 | 0.822 | 0.935 | 0.508 | 1.06 | 0.912 | 0.938 | 0.89 | 0.901 | 0.935 | 1.01 | 1.02 | 0.997
LXF-289 | 1.05 | 1.01 | 1.03 | 1.01 | 1.07 | 1.01 | 1.02 | 1.06 | 1.02 | 0.844 | 1.08 | 0.983 | 1.16 | 1.04 | 0.942 | 1.02 | 1.01 | 1.02 | 1.01 | 1.01 | 1.03 | 1.02 | 0.99 | 1.02
NCI-H23 | 0.981 | 1.11 |  | 1.12 | 1.03 | 0.923 | 1 | 0.957 | 1.08 | 0.977 | 0.904 | 0.754 | 0.814 | 0.909 | 0.201 | 1.05 | 0.91 | 0.89 | 1.1 | 0.776 | 1.11 | 1.02 | 0.846 | 0.879
NCI-H322M | 0.895 | 1.01 |  | 0.97 | 0.77 | 0.926 | 0.923 | 1.05 | 1.07 | 0.871 | 1.13 | 0.831 |  | 1.11 | 0.838 | 1.03 | 0.818 | 0.906 | 0.983 | 0.841 | 0.969 | 0.848 | 0.879 | 0.875
NCI-H358 | 0.857 | 0.93 | 1.04 | 1.07 | 1.05 | 0.899 | 0.933 | 1.05 | 1.15 | 0.815 | 1.09 | 0.775 | 0.829 | 1.07 | 0.451 | 0.954 | 0.675 | 0.924 | 0.956 | 0.807 | 1.04 | 0.985 | 0.988 | 0.888
NCI-H441 | 1.1 | 0.977 | 1.08 | 0.938 | 1.05 | 1.05 | 1.08 | 1.25 | 1.12 | 0.995 | 1 | 0.87 | 0.812 | 0.99 | 0.713 | 1.11 | 0.828 | 1.3 | 0.985 | 1.02 | 1.27 | 1.23 | 0.971 | 1.1
NCI-H460 | 0.971 | 0.993 | 1.01 | 1 | 0.989 | 0.994 | 1.05 | 1.14 | 1.09 | 0.959 | 1.01 | 0.859 | 0.86 | 1.02 | 0.592 | 1.04 | 0.838 | 0.926 | 0.995 | 1 | 1.13 | 0.918 | 0.935 | 1.08
